Source: patent US20210380548A1, “Fused [1,2,4]Thiadiazine Derivatives Which Act as KAT Inhibitors of the MYST Family” (CTxT Pty Limited, priority 2017, published 2021)

How the values were obtained:
MOZ-KAT6A = molecular target: T1, MOZ-KAT6A (Homo sapiens, UniProt Q92794, A567V); test: Revised Acetyltransferase Biochemical Assay, KAT6A; conditions: Table 8 (MOZ-KAT6A), 1 μM Acetyl coenzyme A
T1 construct: encoding amino acid residues 507 to 778 (Uniprot Q92794-1) of human KAT6A; made in house; host or cells: E. coli BL21 DE3

MOF-KAT8 [1] = molecular target: T2, MOF-KAT8 (Homo sapiens, UniProt Q9H7Z6); test: Acetyltransferase biochemical assay (AlphaScreen), KAT8; conditions: Table 4 (MOF-KAT8); 0.4 μM Acetyl coenzyme A, histone H4, 20 nM enzyme
T2 sequence (Q9H7Z6 177-447): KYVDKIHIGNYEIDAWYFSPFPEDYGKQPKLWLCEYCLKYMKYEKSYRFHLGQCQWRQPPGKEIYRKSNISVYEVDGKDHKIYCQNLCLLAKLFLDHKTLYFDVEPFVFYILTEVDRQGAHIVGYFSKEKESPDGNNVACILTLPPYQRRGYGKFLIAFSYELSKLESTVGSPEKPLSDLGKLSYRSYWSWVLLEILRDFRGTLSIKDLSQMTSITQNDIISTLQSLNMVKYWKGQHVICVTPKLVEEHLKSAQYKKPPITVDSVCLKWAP

HBO-KAT7 [2] = molecular target: T3, HBO-KAT7 (Homo sapiens, UniProt O95251); test: Revised Acetyltransferase Biochemical Assay, KAT7; conditions: Table 9 (HBO-KAT7), 1 μM Acetyl coenzyme A
T3 construct: encoding amino acid residues 325 to 611 (Uniprot 095251-1) of human KAT7; made in house; host or cells: E. coli BL21 DE3 RIL

MOF-KAT8 [3] = molecular target: T2, MOF-KAT8; test: Revised Acetyltransferase Biochemical Assay, KAT8
[4] = test system: histone H3 Lysine 14 acetylation (HBO1 mediated) in U2OS cells; test: Histone H3 Lysine 14 Acetylation Biomarker Assay (384-well, U2OS); assay type: cell-based; conditions: Homo sapiens, serum free medium, 24 hours incubation
Description: Compounds may be tested for their ability to inhibit acetylation of the histone H3 Lysine 14 (which is HBO1 mediated) marker in the following assay:
The cell line U2OS was seeded at a density of 3,000 cells per well in 384-well optical quality tissue culture plates in RPMI medium supplemented with 10% foetal bovine serum and 10 mM Hepes. The cells were allowed to adhere for 24 hours under standard culture conditions (37 degree Celsius, 5% CO2). At the end of this period the cells were washed with serum free medium. Compound dilutions prepared in DMSO were added to the serum free medium, with negative control wells reserved for treatment with DMSO only and 100% inhibition positive controls receiving a potent inhibitor compound (e.g. (Z)-4-fluoro-N-((3-hydroxyphenyl)sulfonyl)-5-methyl-[1,1′-biphenyl]-3-carbohydrazonic acid) at 10 μM concentration. After incubation for 24 hours, the cells were fixed with 4% formaldehyde in PBS for 15 minutes at room temperature, washed with phosphate buffer saline and blocked with blocking buffer containing 0.2% TritonX100 and 2% BSA. Anti-H3K14ac specific antibody (Cell Signalling Technologies) in blocking buffer was added and incubated overnight at 4 degree Celsius. After washing, a secondary antibody labelled with AlexaFluor 488 dye (ThermoFisher) and Hoechst 33342 (1 μg/mL, Life Technologies) were added for 2 hours incubation at room temperature. Plates were washed and read on a
PerkinElmer Opera HCS high content imaging platform. Using a Columbus image analysis pipeline, individual nuclei were located by Hoechst 33342 stain and the acetylation level was calculated from the AlexaFluor 488-related intensity in the same area. The resulting mean intensity per cell was converted to percent inhibition relative to controls on the same plate and the data fitted against a four-parameter logistic model to determine the 50% inhibitory concentration (IC50).

TIP60-KAT5 = molecular target: T4, TIP60-KAT5 (Homo sapiens, UniProt Q92993); test: Revised Acetyltransferase Biochemical Assay, KAT5; conditions: 10 nM KAT5, 1 μM AcCoA, 100 nM histone H4, 90 min
T4 construct: encoding amino acid residues 2 to 461 (Uniprot Q92993-2) of human KAT5 isoform; made in house; host or cells: E. coli BL21 DE3

[5] = test system: histone H2A.Z Lysine 7 acetylation (TIP60 mediated) in U2OS cells; test: H2A.Z Lysine 7 Acetylation Biomarker Assay (384-well, U2OS); assay type: cell-based; conditions: Homo sapiens, serum free medium, 24 hours incubation
Description: Compounds may be tested for their ability to inhibit the histone H2A.Z Lysine 7 acetylation marker (which is TIP60 mediated) in the following assay:
The cell line U2OS was seeded at a density of 3,000 cells per well in 384-well optical quality tissue culture plates in RPMI medium supplemented with 10% foetal bovine serum and 10 mM Hepes. The cells were allowed to adhere for 24 hours under standard culture conditions (37 degree Celsius, 5% CO2). At the end of this period the cells were washed with serum free medium. […] After incubation for 24 hours, the cells were fixed with 4% formaldehyde in PBS for 15 minutes at room temperature, washed with phosphate buffer saline and blocked with blocking buffer containing 0.2% TritonX100 and 2% BSA. Anti-H2A.ZK7ac specific antibody (Abcam) in blocking buffer was added and incubated overnight at 4 degree Celsius. After washing, a secondary antibody labelled with AlexaFluor 488 dye (ThermoFisher) and Hoechst 33342 (1 μg/mL, Life Technologies) were added for 2 hours incubation at room temperature. Plates were washed and read on a PerkinElmer Opera HCS high content imaging platform. Using a Columbus image analysis pipeline, individual nuclei were located by Hoechst 33342 stain and the acetylation level was calculated from the AlexaFluor 488-related intensity in the same area. The resulting mean intensity per cell was converted to percent inhibition relative to controls on the same plate and the data fitted against a four-parameter logistic model to determine the 50% inhibitory concentration (IC50).

HBO-KAT7 [6] = molecular target: T3, HBO-KAT7; test: Acetyltransferase biochemical assay (AlphaScreen), KAT7; conditions: Table 3 (HBO-KAT7); 0.4 μM Acetyl coenzyme A, histone H3.1, 40 nM enzyme

T1 sequence (Q92794 507-778 A567V limits assumed): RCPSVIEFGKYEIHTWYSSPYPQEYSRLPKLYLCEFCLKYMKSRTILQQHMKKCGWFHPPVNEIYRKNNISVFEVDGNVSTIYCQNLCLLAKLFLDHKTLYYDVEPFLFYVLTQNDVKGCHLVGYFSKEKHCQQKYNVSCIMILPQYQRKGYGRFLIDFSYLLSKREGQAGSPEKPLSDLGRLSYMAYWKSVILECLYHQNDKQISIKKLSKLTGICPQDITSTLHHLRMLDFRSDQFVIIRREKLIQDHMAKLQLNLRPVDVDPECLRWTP
T4 sequence (Q92993 2-461 isoform Q92993-2): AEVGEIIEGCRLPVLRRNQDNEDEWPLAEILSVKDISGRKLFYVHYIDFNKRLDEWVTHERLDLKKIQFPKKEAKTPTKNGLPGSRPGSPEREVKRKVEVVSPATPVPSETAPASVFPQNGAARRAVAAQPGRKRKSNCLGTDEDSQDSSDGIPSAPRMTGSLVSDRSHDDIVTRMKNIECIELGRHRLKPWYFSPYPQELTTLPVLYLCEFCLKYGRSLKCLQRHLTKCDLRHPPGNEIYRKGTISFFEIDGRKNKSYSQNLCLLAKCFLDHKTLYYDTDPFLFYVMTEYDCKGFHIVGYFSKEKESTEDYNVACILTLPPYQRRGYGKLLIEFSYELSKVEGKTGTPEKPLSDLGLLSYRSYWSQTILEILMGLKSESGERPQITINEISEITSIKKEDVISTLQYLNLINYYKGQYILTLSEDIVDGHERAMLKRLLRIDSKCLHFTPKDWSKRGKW
T3 sequence (O95251 with tags, fused parts or gaps): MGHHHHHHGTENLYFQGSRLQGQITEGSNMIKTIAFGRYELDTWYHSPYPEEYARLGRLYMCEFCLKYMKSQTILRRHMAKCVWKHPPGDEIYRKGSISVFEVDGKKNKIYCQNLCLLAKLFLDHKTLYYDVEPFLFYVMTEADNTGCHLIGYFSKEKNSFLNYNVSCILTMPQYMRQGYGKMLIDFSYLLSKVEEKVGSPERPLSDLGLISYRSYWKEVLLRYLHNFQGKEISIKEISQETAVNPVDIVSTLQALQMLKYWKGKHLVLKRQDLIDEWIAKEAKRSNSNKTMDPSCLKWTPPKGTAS

SMILES	IC50 (MOZ-KAT6A) [µM]	IC50 (MOF-KAT8 [1]) [µM]	IC50 (HBO-KAT7 [2]) [µM]	IC50 (MOF-KAT8 [3]) [µM]	IC50 [4] [µM]	IC50 (TIP60-KAT5) [µM]	IC50 [5] [µM]	IC50 (HBO-KAT7 [6]) [µM]
COCc1nnc(C(CNC(=O)C2=Nc3ccc(I)cc3S(=O)(=O)N2)c2ccccc2)o1 (centres unmarked) [Example 171]	0.024	41.7	0.785	> 125	10.4	1.16	> 40	
COc1cccc(C(CNC(=O)C2=Nc3ccc(Br)cc3S(=O)(=O)N2)c2ncco2)c1 (centres unmarked) [Example 188, 7-bromo-N-(2-(3-methoxyphenyl)-2-(oxazol-2-yl)ethyl)-2H-benzo[e][1,2,4]thiadiazine-3-carboxamide 1,1-dioxide]	0.041	39.8	0.215	54.3	0.427	1.44		
Nc1nnc(C(CNC(=O)C2=Nc3ccc(I)cc3S(=O)(=O)N2)c2ccccc2)o1 (centres unmarked) [Example 189]	0.075	7.96	0.214	28.7	> 20	2.85	> 40	
O=C(NCCc1ccccc1-n1ncc(CO)n1)C1=Nc2ccc(I)cc2S(=O)(=O)N1 [Example 190, N-(2-(4-(hydroxymethyl)-2H-1,2,3-triazol-2-yl)phenethyl)-7-iodo-2H-benzo[e][1,2,4]thiadiazine-3-carboxamide 1,1-dioxide]	0.008	48.9	0.414	68.4	4.95	0.303	31.1	
O=C(NCC(CO)c1ccccc1)C1=Nc2ccc(Cl)cc2S(=O)(=O)N1 (centres unmarked) [Example 225, 7-Chloro-N-(3-hydroxy-2-phenylpropyl)-2H-benzo[e][1,2,4]thiadiazine-3-carboxamide 1,1-dioxide]	0.447		1.46	> 125	> 40	5.12	> 40	
COCC(CNC(=O)C1=Nc2ccc(Cl)cc2S(=O)(=O)N1)c1ccccc1 (centres unmarked) [Example 226, 7-Chloro-N-(3-methoxy-2-phenylpropyl)-2H-benzo[e][1,2,4]thiadiazine-3-carboxamide 1,1-dioxide]	0.075		1.93	> 125	24.4	3.73	> 40	
COCc1cnn(-c2ccccc2CCNC(=O)C2=Nc3ccc(I)cc3S(=O)(=O)N2)n1 [Example 239, 7-iodo-N-(2-(4-(methoxymethyl)-2H-1,2,3-triazol-2-yl)phenethyl)-2H-benzo[e][1,2,4]thiadiazine-3-carboxamide 1,1-dioxide]	0.017	> 125	0.686	75.6	19.2	0.597		
O=C(NCCc1ccccc1-n1cccn1)C1=Nc2ccc(I)cc2S(=O)(=O)N1 [Example 240, N-(2-(1H-pyrazol-1-yl)phenethyl)-7-iodo-2H-benzo[e][1,2,4]thiadiazine-3-carboxamide 1,1-dioxide]	0.021		0.134	62.6	3.32	0.309	11.2	
O=C(NCC(c1ccccn1)n1cccn1)C1=Nc2ccc(Br)cc2S(=O)(=O)N1 (centres unmarked) [Example 244, N-(2-(1H-Pyrazol-1-yl)-2-(pyridin-2-yl)ethyl)-7-bromo-4H-benzo[e][1,2,4]thiadiazine-3-carboxamide 1,1-dioxide]	6.83	82.9	3.83		> 40	14.6		

The next lines start with the values.

IC50 (MOZ-KAT6A) [µM]	IC50 (MOF-KAT8 [1]) [µM]	IC50 (HBO-KAT7 [2]) [µM]	IC50 (MOF-KAT8 [3]) [µM]	IC50 [4] [µM]	IC50 (TIP60-KAT5) [µM]	IC50 [5] [µM]	IC50 (HBO-KAT7 [6]) [µM]	SMILES
0.029	4.2	0.512	34.5	6.52	1.54	10.9		O=C(NCC(c1cccc(Cl)c1)c1ncco1)C1=Nc2ccc(Cl)cc2S(=O)(=O)N1 (centres unmarked) [Example 162]
0.017	29.6	0.242	34.4	2.08	0.781	2.82		O=C(NCC(c1ccc(F)cc1)c1ncco1)C1=Nc2ccc(I)cc2S(=O)(=O)N1 (centres unmarked) [Example 164]
0.023	5.14	0.386	43.7	1.3	0.412	9.88		Cc1ccc(C(CNC(=O)C2=Nc3ccc(I)cc3S(=O)(=O)N2)c2ncco2)cc1 (centres unmarked) [Example 169]
0.015	22.8	0.115	14.1	0.491	0.242	5.46		COc1cccc(C(CNC(=O)C2=Nc3ccc(I)cc3S(=O)(=O)N2)c2ncco2)c1 (centres unmarked) [Example 187, 7-iodo-N-(2-(3-methoxyphenyl)-2-(oxazol-2-yl)ethyl)-2H-benzo[e][1,2,4]thiadiazine-3-carboxamide 1,1-dioxide]
0.241	40.8	1.09		4.15	4			CC(O)c1ccc2c(c1)S(=O)(=O)NC(C(=O)NCC(c1ccccc1)c1ncco1)=N2 (centres unmarked) [Example 212, 7-(1-Hydroxyethyl)-N-(2-(oxazol-2-yl)-2-phenylethyl)-2H-benzo[e][1,2,4]thiadiazine-3-carboxamide 1,1-dioxide]
0.009	7.06	0.05	20.1	3.6	0.07	8.78		O=C(NCC(c1cccc(O)c1)c1ncco1)C1=Nc2ccc(Br)cc2S(=O)(=O)N1 (centres unmarked) [Example 214, 7-Bromo-N-(2-(3-hydroxyphenyl)-2-(oxazol-2-yl)ethyl)-2H-benzo[e][1,2,4]thiadiazine-3-carboxamide 1,1-dioxide]
0.265	22.5	1.19		1.29	1.46	32.1	1.74	O=C(NCC(c1cccc(OCC2CC2)c1)c1ncco1)C1=Nc2ccc(I)cc2S(=O)(=O)N1 (centres unmarked) [Example 217, N-(2-(3-(Cyclopropylmethoxy)phenyl)-2-(oxazol-2-yl)ethyl)-7-iodo-2H-benzo[e][1,2,4]thiadiazine-3-carboxamide 1,1-dioxide]
0.007	6.52	0.092	9.66	3.25	0.111	5.71		O=C(NCC(c1ncco1)c1ccccc1O)C1=Nc2ccc(I)cc2S(=O)(=O)N1 (centres unmarked) [Example 228, N-(2-(2-Hydroxyphenyl)-2-(oxazol-2-yl)ethyl)-7-iodo-2H-benzo[e][1,2,4]thiadiazine-3-carboxamide 1,1-dioxide]
